SMILES strings stand for the structures.

For the assay, the target named is T1, human LPA1 receptor (Homo sapiens, UniProt Q92633).
T1 construct: TEV protease site; Gal4-VP16 transcription factor; host or cells: Tango EDG2-bla U2OS cells
In words: Beta-arrestin recruitment assay to determine IC50 values for human LPAR1. The assay is classed as cell-based. The note with it: Tango EDG2-bla U2OS cells, antagonist assay, LPA 18:1 500 nM final. From the text:
Beta-Arrestin Recruitment Assay to Determine IC50 Values for Human LPAR1
The Tango™ EDG2-bla U2OS cells are obtained from Invitrogen. These cells contain the human LPA1 receptor cDNA linked to a TEV protease site and a Gal4-VP16 transcription factor integrated into the Tango™ GPCR-bla U2OS parental cell line. This parental cell line stably expresses a beta-arrestin/TEV protease fusion protein and the beta-lactamase (bla) reporter gene under the control of a UAS response element. Upon LPA (agonist) binding, LPA1 receptor gets activated, leading to arrestin-protease recruitment and proteolytic release of the transcription factor: The transcription factor then regulates transcription of a beta-lactamase reporter construct, which is measured upon addition of the live-cell substrate.
10′000 Tango™ EDG2-bla U2OS cells are seeded in a 384-well black with clear bottom plate in 30 μl Freestyle 293 Expression Medium (Invitrogen) and incubated for 20 h at 37° C., 5% CO2. For antagonist assays, 5 μl of test compound (dilution series in DMSO/Freestyle 293 Expression medium/0.1% fatty acid free BSA (Sigma)) or buffer control are added per well and incubated for 30 min at 37° C., 5% CO2. 5 μl of LPA 18:1 (500 nM final) (solution in Freestyle 293 Expression medium/0.1% fatty acid free BSA (Sigma)) are added per well and the plate incubated for 16 h at 37° C., 5% CO2. Cells are then loaded with LiveBLAzer-FRET™ B/G Substrate (Invitrogen) for 2 h in the dark and the fluorescence emission at 460 nm and 530 nm is measured using the SynergyMx reader (BioTek). Following the background subtraction from both channels, the 460/530 nm emission ratio for each well is calculated, then plotted and fitted to a 4-parameter logistic function to obtain IC50 values. IC50 is the concentration of antagonist inhibiting 50% of the maximal response.

T1 sequence (Q92633 whole entry, the tested form may be a part): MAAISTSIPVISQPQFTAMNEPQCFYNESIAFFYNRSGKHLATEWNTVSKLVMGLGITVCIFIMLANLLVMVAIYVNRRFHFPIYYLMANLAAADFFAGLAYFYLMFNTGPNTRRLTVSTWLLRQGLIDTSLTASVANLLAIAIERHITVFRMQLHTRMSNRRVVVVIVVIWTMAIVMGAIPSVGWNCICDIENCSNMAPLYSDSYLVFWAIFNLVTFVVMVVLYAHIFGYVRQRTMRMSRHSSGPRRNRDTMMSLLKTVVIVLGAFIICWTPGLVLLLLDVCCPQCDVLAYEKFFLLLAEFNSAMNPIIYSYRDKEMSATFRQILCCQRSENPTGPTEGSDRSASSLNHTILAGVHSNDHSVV

On to `COc1cc(Cl)ncc1NC(=O)C1(c2ccccc2C(C)C)CN(C(=O)c2noc(O)n2)C1` [Example 19-6, N-(6-chloro-4-methoxypyridin-3-yl)-1-(5-hydroxy-1,2,4-oxadiazole-3-carbonyl)-3-(2-isopropylphenyl)azetidine-3-carboxamide], for which the IC50 stood at 0.061 µM.
Then `COc1cc(Cl)ncc1NC(=O)C1(c2ccccc2C(C)C)CN(C(=O)Cn2nccn2)C1` [Example 19-7, 1-(2-(2H-1,2,3-triazol-2-yl)acetyl)-N-(6-chloro-4-methoxypyridin-3-yl)-3-(2-isopropylphenyl)azetidine-3-carboxamide], with 0.015 µM; and `COc1cc(Cl)ncc1NC(=O)C1(c2ccccc2C(C)C)CN(C(=O)Cn2cc(C)nn2)C1` [Example 19-8, N-(6-chloro-4-methoxypyridin-3-yl)-3-(2-isopropylphenyl)-1-(2-(4-methyl-1H-1,2,3-triazol-1-yl)acetyl)azetidine-3-carboxamide], with 0.043 µM.
With `COc1cc(Cl)ncc1NC(=O)C1(c2ccccc2C(C)C)CN(C(=O)Cn2cc(CO)nn2)C1` [Example 19-9, N-(6-chloro-4-methoxypyridin-3-yl)-1-(2-(4-(hydroxymethyl)-1H-1,2,3-triazol-1-yl)acetyl)-3-(2-isopropylphenyl)azetidine-3-carboxamide] the figure was 0.052 µM.
With `COc1cc(Cl)ncc1NC(=O)C1(c2ccccc2C(C)C)CN(C(=O)Cn2ncnn2)C1` [Example 19-10, 1-(2-(2H-tetrazol-2-yl)acetyl)-N-(6-chloro-4-methoxypyridin-3-yl)-3-(2-isopropylphenyl)azetidine-3-carboxamide] the figure was 0.017 µM.
`COc1cc(Cl)ncc1NC(=O)C1(c2ccccc2C(C)C)CN(C(=O)Cn2ccnn2)C1` [Example 19-11, 1-(2-(1H-1,2,3-triazol-1-yl)acetyl)-N-(6-chloro-4-methoxypyridin-3-yl)-3-(2-isopropylphenyl)azetidine-3-carboxamide]: the IC50 turned out to be 0.107 µM.
With `COc1cc(Cl)ncc1NC(=O)C1(c2ccccc2C(C)C)CN(C(=O)Cc2c[nH]nc2O)C1` [Example 19-12, N-(6-chloro-4-methoxypyridin-3-yl)-1-(2-(3-hydroxy-1H-pyrazol-4-yl)acetyl)-3-(2-isopropylphenyl)azetidine-3-carboxamide], the IC50 stood at 0.024 µM.
`COc1cc(Cl)ncc1NC(=O)C1(c2ccccc2C(C)C)CN(C(=O)Cc2cc(O)n[nH]2)C1` [Example 19-13, N-(6-chloro-4-methoxypyridin-3-yl)-1-(2-(3-hydroxy-1H-pyrazol-5-yl)acetyl)-3-(2-isopropylphenyl)azetidine-3-carboxamide]: the IC50 was determined as 0.112 µM.
For the compound `COc1cc(Cl)ncc1NC(=O)C1(c2ccccc2C(C)C)CN(C(=O)CNS(N)(=O)=O)C1` [Example 19-14, N-(6-chloro-4-methoxypyridin-3-yl)-3-(2-isopropylphenyl)-1-(sulfamoylglycyl)azetidine-3-carboxamide], the IC50 turned out to be 0.067 µM.
Then `COc1cc(Cl)ncc1NC(=O)C1(c2ccccc2C(C)C)CN(C(=O)CNS(C)(=O)=O)C1` [Example 19-15, N-(6-chloro-4-methoxypyridin-3-yl)-3-(2-isopropylphenyl)-1-((methylsulfonyl)glycyl)azetidine-3-carboxamide], with 0.037 µM; and `COc1cc(Cl)ncc1NC(=O)C1(c2ccccc2C(C)C)CN(C(=O)CS(C)(=O)=O)C1` [Example 19-16, N-(6-chloro-4-methoxypyridin-3-yl)-3-(2-isopropylphenyl)-1-(2-(methylsulfonyl)acetyl)azetidine-3-carboxamide], with 0.054 µM.
Then `COC(=O)C(C)(C)CC(=O)N1CC(C(=O)Nc2cnc(Cl)cc2OC)(c2ccccc2C(C)C)C1` [Example 19-17, methyl 4-(3-((6-chloro-4-methoxypyridin-3-yl)carbamoyl)-3-(2-isopropylphenyl)azetidin-1-yl)-2,2-dimethyl-4-oxobutanoate], with 0.043 µM; and `COc1cc(Cl)ncc1NC(=O)C1(c2ccccc2C(C)C)CN(C(=O)CC(C)(C)C(=O)O)C1` [Example 19-18, 4-(3-((6-chloro-4-methoxypyridin-3-yl)carbamoyl)-3-(2-isopropylphenyl)azetidin-1-yl)-2,2-dimethyl-4-oxobutanoic acid], with 0.088 µM; and `COc1cc(Br)ncc1NC(=O)C1(c2ccccc2C(C)C)CN(C(=O)CC(C)(C)C(=O)O)C1` [Example 19-19, 4-(3-((6-bromo-4-methoxypyridin-3-yl)carbamoyl)-3-(2-isopropylphenyl)azetidin-1-yl)-2,2-dimethyl-4-oxobutanoic acid], with 0.021 µM.
Then `CCOc1cc(Cl)ncc1NC(=O)C1(c2ccccc2C(C)C)CN(C(=O)CC(C)(C)C(=O)OC)C1` [Example 19-21, methyl 4-(3-((6-chloro-4-ethoxypyridin-3-yl)carbamoyl)-3-(2-isopropylphenyl)azetidin-1-yl)-2,2-dimethyl-4-oxobutanoate], with 0.072 µM; and `CCOc1cc(Cl)ncc1NC(=O)C1(c2ccccc2C(C)C)CN(C(=O)CC(C)(C)C(=O)O)C1` [Example 19-22, 4-(3-((6-chloro-4-ethoxypyridin-3-yl)carbamoyl)-3-(2-isopropylphenyl)azetidin-1-yl)-2,2-dimethyl-4-oxobutanoic acid], with 0.012 µM; and `COc1cc(F)ncc1NC(=O)C1(c2ccccc2C(C)C)CN(C(=O)CC(C)(C)C(=O)O)C1` [Example 19-23, 4-(3-((6-fluoro-4-methoxypyridin-3-yl)carbamoyl)-3-(2-isopropylphenyl)azetidin-1-yl)-2,2-dimethyl-4-oxobutanoic acid], with 0.1 µM.
Consider `COc1cc(Cl)ncc1NC(=O)C1(c2ccccc2C(C)C)CN(S(C)(=O)=O)C1` [Example 20-1, N-(6-chloro-4-methoxypyridin-3-yl)-3-(2-isopropylphenyl)-1-(methylsulfonyl)azetidine-3-carboxamide], for which the IC50 was 0.011 µM.
With `COCCS(=O)(=O)N1CC(C(=O)Nc2cnc(Cl)cc2OC)(c2ccccc2C(C)C)C1` [Example 20-2, N-(6-chloro-4-methoxypyridin-3-yl)-3-(2-isopropylphenyl)-1-((2-methoxyethyl)sulfonyl)azetidine-3-carboxamide] the figure was 0.608 µM.
`COc1cc(Cl)ncc1NC(=O)C1(c2ccccc2C(C)C)CN(S(=O)(=O)CCO)C1` [Example 20-3, N-(6-chloro-4-methoxypyridin-3-yl)-1-((2-hydroxyethyl)sulfonyl)-3-(2-isopropylphenyl)azetidine-3-carboxamide]: the IC50 came to 0.021 µM.
Then `COc1cc(Cl)ncc1NC(=O)C1(c2ccccc2C(C)C)CN(S(=O)(=O)CCN(C)C)C1` [Example 20-4, N-(6-chloro-4-methoxypyridin-3-yl)-1-((2-(dimethylamino)ethyl)sulfonyl)-3-(2-isopropylphenyl)azetidine-3-carboxamide], with 0.472 µM.
With `COc1cc(Cl)ncc1NC(=O)C1(c2ccccc2C(C)C)CN(S(=O)(=O)C2COC2)C1` [Example 20-5, N-(6-chloro-4-methoxypyridin-3-yl)-3-(2-isopropylphenyl)-1-(oxetan-3-ylsulfonyl)azetidine-3-carboxamide] the figure was 0.034 µM.
Then `COc1cc(F)ncc1NC(=O)C1(c2ccccc2C(C)C)CN(S(N)(=O)=O)C1` [Example 21-1, N-(6-fluoro-4-methoxypyridin-3-yl)-3-(2-isopropylphenyl)-1-sulfamoylazetidine-3-carboxamide], with 0.017 µM.
Take `CCOc1cc(Cl)ncc1NC(=O)C1(c2ccccc2C(C)C)CN(S(N)(=O)=O)C1` [Example 21-3, N-(6-chloro-4-ethoxypyridin-3-yl)-3-(2-isopropylphenyl)-1-sulfamoylazetidine-3-carboxamide]: the IC50 amounted to 0.002 µM.
With `CC(C)Oc1cc(Cl)ncc1NC(=O)C1(c2ccccc2C(C)C)CN(S(N)(=O)=O)C1` [Example 21-4, N-(6-chloro-4-isopropoxypyridin-3-yl)-3-(2-isopropylphenyl)-1-sulfamoylazetidine-3-carboxamide] the figure was 0.001 µM; with `CC(C)c1ccccc1C1(C(=O)Nc2cnc(Cl)cc2OC2CC2)CN(S(N)(=O)=O)C1` [Example 21-5, N-(6-chloro-4-cyclopropoxypyridin-3-yl)-3-(2-isopropylphenyl)-1-sulfamoylazetidine-3-carboxamide], 0.006 µM; with `COCCOc1cc(Cl)ncc1NC(=O)C1(c2ccccc2C(C)C)CN(S(N)(=O)=O)C1` [Example 21-6, N-(6-chloro-4-(2-methoxyethoxy)pyridin-3-yl)-3-(2-isopropylphenyl)-1-sulfamoylazetidine-3-carboxamide], 0.044 µM.
Then `COC[C@H](C)Oc1cc(Cl)ncc1NC(=O)C1(c2ccccc2C(C)C)CN(S(N)(=O)=O)C1` [Example 21-7, (S)-N-(6-chloro-4-((1-methoxypropan-2-yl)oxy)pyridin-3-yl)-3-(2-isopropylphenyl)-1-sulfamoylazetidine-3-carboxamide], with 0.003 µM.

Values taken from patent US12479820B2, “Pyridin-3-yl derivatives” (Idorsia Pharmaceuticals Ltd, priority 2019, dated 2025).
